This note sets out measurements from US4025622A, “Novel sugar ureide and thioureide derivatives” (Ogura; Haruo, priority 1974, dated 1977).

The subject of data set [1] is Staphylococcus aureus No. 26. Nature of the data set: Minimum inhibitory concentration, standard serial dilution method. The format is cell-based. Particulars: 37° C.; for MIC: Staphylococcus aureus, NO.26, 24 h, inoculum size 2.3×10^5, Brain heart infusion broth. Here is the method:
(§1) The minimum inhibitory concentration (mcg/ml) of a variety of the sugar ureide and thioureide derivatives according to this invention against various bacteria was determined in accordance with a standard serial dilution method using as medium Brain heart infusion broth (Difco) at 37° C. the determination being made after 24 hours incubation. The results are shown in Table 1 together with the results of test for ampicillin as reference.

Data set [2] deals with Staphylococcus aureus 209 P. The data set is described as above. The format is cell-based. Particulars: inoculum size 3.8×10^5, Brain heart infusion broth, 37° C., 24 hours; for MIC: Staphylococcus aureus, 209P. As to the method:
as §1

Data set [3] has as its system Salmonella typhi O-901-W. The description is as above. It is filed as cell-based. Particulars: 37° C.; for MIC: Salmonella enterica, TYPHI, 24 h, inoculum size 3.5×10^5, Brain heart infusion broth; for MIC Salmonella typhi O-901-W: inoculum size 3.5×10^5, Brain heart infusion broth, 24 hours. As to the method: as §1
The subject of data set [4] is Escherichia coli IAM-1264. Described as above. The format is cell-based. To be noted: 37° C.; for MIC: Escherichia coli, IAM1264, 24 h, inoculum size 1.9×10^5, Brain heart infusion broth. Here is the method: as §1
The test system of data set [5] is Klebsiella pneumoniae. The description is as above. The format is cell-based. Particulars: 37° C.; for MIC: Klebsiella pneumoniae, 24 h, inoculum size 1.3×10^5, Brain heart infusion broth. As to the method:
as §1

Data set [6] relates to Proteus vulgaris OX 19. Described as above. The format is cell-based. To be noted: 37° C.; for MIC: Proteus vulgaris, OX19, 24 h, inoculum size 1.2×10^5, Brain heart infusion broth; for MIC Proteus vulgaris OX 19: inoculum size 1.2×10^5, Brain heart infusion broth, 24 hours. Here is the method: as §1
In data set [7] the test system is Pseudomonas aeruginosa IAM-1007. The description is as above. The format is cell-based. To be noted: 37° C.; for MIC: Pseudomonas aeruginosa, IAM1007, 24 h, inoculum size 1.3×10^5, Brain heart infusion broth. As to the method:
as §1

Data set [8] relates to mice. Nature of the data set: LDo value for mice by oral administration. It is filed as in vivo.
The mark [9] stands for this setting: inoculum size 1.3×10^5, Brain heart infusion broth, 24 hours.

In brackets after ≈: the same amount, converted by molar mass.

As a reminder, the MIC is the lowest concentration found to suppress growth. With `CC1(C)S[C@@H]2[C@H](NC(=O)[C@H](N)c3ccccc3)C(=O)N2[C@H]1C(=O)O` [Ampicillin, α-aminobenzylpenicillin, reference compound], the MIC in data set [1] is more than 100 µg/mL; in data set [2] it was 0.1 µg/mL (≈ 0.286 µM); in data set [3] it was 0.39 µg/mL (≈ 1.12 µM); in data set [4] it was 3.12 µg/mL (≈ 8.93 µM); in data set [5] it was 1.56 µg/mL (≈ 4.46 µM); in data set [6], 100 µg/mL (≈ 286 µM). In addition, the MIC in data set [7] was more than 100 µg/mL. This compound gave an LDo in data set [8] of more than 1000 mg/kg.

As to `CC(=O)O[C@H]1[C@H](OC(C)=O)[C@@H](NC(=S)N[C@@H](C(=O)N[C@@H]2C(=O)N3[C@@H]2SC(C)(C)[C@@H]3C(=O)O)c2ccccc2)OC[C@H]1OC(C)=O` [Example 10, Triethylammonium α-(2,3,4,-tri-O-acetyl-α-D-arabinopyranosylthioureido) benzylpenicillinate], the MIC worked out at 100 µg/mL in data set [1]; 3.12 µg/mL in data set [2]; 50 µg/mL in data set [4]; 50 µg/mL in data set [5]; 200 µg/mL in data set [7]. Besides, the “MIC Salmonella typhi O-901-W” value in data set [3] was 6.25 µg/mL. The “MIC Proteus vulgaris OX 19” value in data set [6] is more than 100 µg/mL. This compound displayed an LDo in data set [8] of more than 1000 mg/kg.

As for `CC(=O)O[C@H]1[C@H](OC(C)=O)[C@@H](NC(=S)N[C@@H](C(=O)N[C@@H]2C(=O)N3[C@@H]2SC(C)(C)[C@@H]3C(=O)O)c2ccccc2)OC[C@H]1OC(C)=O` [Example 13, α-(2,3,4-Tri-O-acetyl-α-D-arabinopyranosylthioureido) benzylpenicillin], in data set [1] (inoculum size 2.3×10^5, Brain heart infusion broth, 24 hours), the “MIC Staphylococcus aureus No. 26” value is more than 100 µg/mL. In addition, the “MIC Staphylococcus aureus 209 P” value in data set [2] turned out to be 3.12 µg/mL (≈ 4.68 µM). Besides, the “MIC Salmonella typhi O-901-W” value in data set [3] is more than 100 µg/mL. For the same compound, the “MIC Escherichia coli IAM-1264” value in data set [4] (inoculum size 1.9×10^5, Brain heart infusion broth, 24 hours) is more than 100 µg/mL. The “MIC Klebsiella pneumoniae” value in data set [5] (setting [9]) is more than 100 µg/mL. Besides, the “MIC Proteus vulgaris OX 19” value in data set [6] came out at 25 µg/mL (≈ 37.5 µM). For the same compound, in data set [7] (setting [9]), the “MIC Pseudomonas aeruginosa IAM-1007” value was more than 100 µg/mL.

For the compound `CC(=O)OC[C@@H](OC(C)=O)[C@@H](OC(C)=O)[C@H](OC(C)=O)[C@@H](OC(C)=O)C(=O)NC(=S)N[C@@H](C(=O)N[C@@H]1C(=O)N2[C@@H]1SC(C)(C)[C@@H]2C(=O)O)c1ccccc1` [Example 17, α-(2,3,4,5,6-Penta-O-acetyl-D-gluconyl-thioureido) benzylpenicillin], the minimal inhibitory concentration (MIC) in data set [1] was more than 100 µg/mL; in data set [2], 0.78 µg/mL (≈ 0.979 µM); in data set [3], 50 µg/mL (≈ 62.7 µM); in data set [4] it was more than 100 µg/mL; in data set [5] it was more than 100 µg/mL; in data set [6] it was 1.56 µg/mL (≈ 1.96 µM). The same compound gave an MIC in data set [7] of more than 100 µg/mL. Besides, the LDo in data set [8] is more than 1000 mg/kg.

In the case of `CC(=O)OC[C@@H](OC(C)=O)[C@@H](OC(C)=O)[C@H](OC(C)=O)[C@@H](OC(C)=O)C(=O)NC(=S)N[C@@H](C(=O)N[C@@H]1C(=O)N2C(C(=O)O)=C(C)CS[C@H]12)c1ccccc1` [Example 28, 7-[D-α-(2,3,4,5,6-penta-O-acetyl-D-gluconylthioureido)-phenylacetamido] -3-methyl-3-cephem-4-carboxylic acid], the MIC in data set [2] is 12.5 µg/mL (≈ 15.7 µM); in data set [3] it was more than 100 µg/mL; in data set [4], more than 100 µg/mL; in data set [5] it was more than 100 µg/mL; in data set [6], 100 µg/mL (≈ 126 µM); in data set [7], more than 100 µg/mL. The compound also showed an LDo in data set [8] of more than 1000 mg/kg.
